Assay results taken from publication PMC7555119, “Characterization of Novel Synthetic Polyphenols: Validation of Antioxidant and Vasculoprotective Activities” (Antioxidants, 2020).
Values after ≈ are worked out from the molar mass of the structure shown. Values joined by “and” are separate entries in the source; they are usually repeats but may differ in a detail not shown here. Equal values may be shown once. Read-outs that look alike come from different tables or passages of the source.

Columns and labels:
[1] = Oxygen radical absorbance capacity (ORAC) assay
Method: The ORAC assay was performed following Ou et al., as modified by Garcés-Rimón et al.. All samples and reagents were dissolved in phosphate buffer (75 mM; pH 7.4). […] The fluorescence was recorded at 40 °C every 55 s for 95 min using a fluorimeter (SpectraMax M2; Molecular Devices, California, USA), with excitation and emission wavelengths of 480 and 520 nm, respectively. All samples were tested in triplicate. ORAC values were expressed as μmol of Trolox equivalents (TE)/μmol of pure compound.

[2] = ABTS radical cation scavenging assay
Method: The 2,2′-azino-bis (3-ethylbenzothiazoline-6-sulfonic acid) diammonium salt (ABTS) assay was performed according to Re et al. and modified by Oki et al. for its use in microplates. Samples were diluted in methanol. An ABTS^•+ stock solution was prepared by adding 44 μL of potassium persulfate (140 mmol/L) to a 2.5 mL ABTS^•+ aqueous solution (7 mmol/L). The working solution of the radical ABTS^+ was prepared by diluting the stock solution 1:75 (v/v) in a sodium phosphate buffer (5 mmol/L, pH 7.4) to obtain an absorbance value of 0.7±0.02 at 734 nm. Samples (30 μL) were added to 270 μL of the working solution of ABTS^•+ in a microplate. Absorbance was measured at 734 nm and 30 °C for 20 min, every 5 min in a Synergy HT plate spectrophotometer (Biotek Instruments, Winoosky, VT, USA). A calibration curve was made with Trolox (20–250 μM). All samples were analyzed in triplicate. Results were expressed in μmol TE/μmol of pure compound, as for the ORAC assays.

[3] = DPPH free radical scavenging assay (RSA); settings: for RSA percentage: highest concentration 2 mM, 10 min; for concentration down to which RSA ability is maintained independently of time: 10 min to 2 h; for RSA capacity fold higher compared to resveratrol: after 10 min, from IC50
Method: For the 2,2′-diphenylpicrylhydrazyl (DPPH) assay, antioxidant compounds were dissolved in ethanol with a stock concentration of 4 mM and stirred for 24 h. DPPH (Alfa Aesar) was also dissolved in ethanol at 0.127 mM. Different compound solutions were prepared by serial dilutions of each stock solution ([…]). […] Amounts of 80 µL of each solution and 80 µL of DPPH were added in a 96-well plate. The absorbance was measured at different times (10, 20 and 30 min and 1 and 2 h) by a Multi-Detection Microplate Reader Synergy HT (λMAX = 515 nm). Radical scavenging activity (RSA, %) was calculated using Equation (1) (1) RSA(%)=ADPPH−AEXTRACT/ADPPH·100 where AEXTRACT and ADPPH correspond to the absorbance of DPPH with and without the extracts, respectively. Eight replicates were used for each compound and results were expressed as mean value ± standard deviation. The RSA half-maximal inhibitory concentration (IC50) values were calculated from the relationship curve of RSA versus concentrations by a non-linear fit using the software GraphPad Prism 7.

[4] = Stability in aqueous media (H2O/acetonitrile 80:20, HPLC-MS); type: physicochemical; settings: for stability in aqueous media: H2O/acetonitrile (80:20%), room temperature, checked for 60 days; for Aqueous Stability (%): remaining pure compound (HPLC) after two months at room temperature in aqueous solution (+20% acetonitrile)
Text: The solutions were checked by HPLC-MS at regular intervals of time for 60 days. […] The rest of the compounds suffered progressive degradation, with complete disappearance from the solution after 10 or 20 days. The most unstable polyphenol derivatives were 4 and 10 (Figure S1), having both two p-dihydroxy substitutions in the phenyl rings, which points to the rapid and easy oxidation to the p-hydroquinone. From the four compounds with three phenyl rings, only one was stable in aqueous solution (17).

[5] = system: human dermal fibroblasts (HDF); assay: Cell viability, AlamarBlue assay; type: cell-based; settings: for IC50: 24 h, AlamarBlue, non-linear fit
Method: Cytotoxicity of selected antioxidant compounds was assessed using human dermal fibroblasts (HDF, Innoprot, P10856) and an AlamarBlue assay. Human fibroblasts were grown and maintained using Dulbecco’s Modified Eagle Medium high glucose (DMEM, Sigma Aldrich, D6171), supplemented with 10% Fetal Bovine Serum (FBS), 2% L-glutamine and 1% penicillin/streptomycin. Cells were incubated at 37 °C, 95% relative humidity and 5% CO2. Additionally, DMEM-high glucose, HEPES, no phenol red (Gibco, 2106329) was used to prepare the AlamarBlue solution. Stock solutions of the antioxidant compounds 3, 8, 15 and 17 were prepared in dimethyl sulfoxide (DMSO). Compound 7 was not soluble enough in DMSO to obtain a cell viability IC50 value. Serial dilutions of the antioxidant compounds were prepared using the previously mentioned stock solutions and DMEM. Final DMSO concentration was maintained lower than 1% v/v in the cell culture experiments. HDF were seeded at 9 × 10^4 cells/well in a 96-well plate and incubated for 24 h. The medium was replaced by the corresponding antioxidant solutions and incubated for an additional 24 h. Then, compounds were removed, cells were washed with Dulbecco’s Phosphate Buffered Saline (PBS, Sigma Aldrich) and treated with a 10% v/v AlamarBlue (Invitrogen) solution prepared in DMEM without phenol red. After 3 h of incubation, absorbance was monitored at 570 nm by a Multi-Detection Microplate Reader Synergy HT. Cells treated with DMEM without any antioxidant compound were used as the 100% viability control. Eight replicates were used for each antioxidant solution. IC50 values were obtained by a non-linear fit using the software GraphPad Prism 7.

[6] = system: Saccharomyces cerevisiae strain BY4741; assay: In vivo antioxidant capacity in stressed yeasts (growth recovery, survivors); type: cell-based
Method: Saccharomyces cerevisiae haploid strain BY4741 was used as described previously. Briefly, 20 μL of glycerol stock culture was revived in 5ml of YPD medium (1% yeast extract, 2% bacteriological peptone and 2% dextrose) at 28 °C, with shaking (210 rpm). Fifty microliters of 20-h-old culture was used to inoculate fresh 5ml YPD (control medium) or 5 mL of oxidative stress medium (YPOxD: YPOxD; 1% yeast extract, 2% bacteriological peptone, 1% dextrose and 3% H2O2). Stress (and control) was conducted during 16h at 28 °C, with shaking (220 rpm).
Growth rate was determined from growth kinetics using the BioScreen C plate-reader system (OY Growth Curves Ab Ldt., Helsinki, Finland). Stressed yeast cultures (16 h old) were used to inoculate 200 µl of fresh media to an initial OD595 of 0.05–0.07, being distributed in 100-well honeycomb plates (Oy Growth Curves) in triplicate per each condition (each different dose of each compound). Plates were then incubated at 28 °C for 72h, with shaking (High force), taking OD measurement each 15 min in the Bioscreen C. Maximum growth rate (μmax) and biomass production (carrying capacity) were determined in R using ‘Growthcurver’ package version 0.3 [24]. Growth curves were constructed in EXCEL, represented as mean ± SEM (standard error of mean). […] In addition, to measure survival after oxidative stress and antioxidant effectiveness of each compound, yeast cells from each challenge were serially diluted in 96-well plates, and each dilution was spotted (with a 8 × 6 stainless steel replica platter from SIGMA) in triplicate to determine viable colonies after 24–48 h at 28 °C. Survivors (mean ± SEM) were compared between treatments with one-way ANOVA, Fisher’s LSD test, with alpha at 0.05 for significance.

[7] = Aqueous thermodynamic solubility in H2O (UV); type: physicochemical; settings: water, thermodynamic from solid
Text: 4) Log P and aqueous solubility of selected compounds.
Table S2. Theoretical Log P values and aqueous thermodynamic solubility measured for
Comp `Chemical Structure MW LogP Calc Aqueous Solubility a
a Thermodynamic solubility in H 2O (UV). […]

[8] = system: NADPH oxidase activity in human microvascular endothelial cells (HMEC-1); assay: NADPH oxidase activity in endothelial cells stimulated with Angiotensin II; type: cell-based; settings: HMEC-1, AngII 1 nmol/L 6 h, compound added 30 min before
Method: The human microvascular endothelial cells line (HMEC-1) (ATCC®, Middlesex, UK; CRL-3243™) was used. Cells were cultured according to the manufacturer instructions with MCDB131 medium (Corning, NY, USA, Cat. No. 702564) supplemented with 10 ng/mL epidermal growth factor (Sigma-Aldrich, Alcobendas, Spain), 1 μg/mL hydrocortisone (Sigma-Aldrich), 10 mmol/L glutamine (Sigma-Aldrich), 10% fetal bovine serum (FBS, Sigma-Aldrich), 100 U/mL of penicillin and 100 µg/mL of streptomycin. At 80% confluence, cells were serum-deprived for 24 h before stimulation. HMEC were treated with AngII (1 nmol/L for 6 h; Sigma-Aldrich) in the absence or in the presence of the different compounds that were added 30 min before stimulation.
(§1) The O2 production generated by NADPH oxidase was determined by a chemiluminescence assay. Briefly, endothelial cells or aortic segments were homogenized in phosphate buffer (50 mmol/L KH2PO4, 1 mmol/L EGTA, 150 mmol/L sucrose, pH 7.4). The reaction was started by the addition of a lucigenin (5 μmol/L) and NADPH (100 μmol/L; Sigma-Aldrich) mixture to the protein sample in a final volume of 250 μL. Chemiluminescence was determined every 2.4 s for 3 min in a microtiter plate luminometer (Enspire Perkin Elmer). Basal activity in the absence of NADPH was subtracted from each reading and normalized to protein concentration. Data were normalized vs. control situation.

[9] = system: NADPH oxidase activity in segments of aorta from C57BL6/J mice; assay: NADPH oxidase activity in aortic segments stimulated ex vivo with IL-1β; settings: IL-1β 10 ng/mL 6 h
Method: Aortic segments from three-month-old C57BL6/J mice were incubated with IL-1β (10 ng/mL, 6 h, Sigma Aldrich) in the presence and in the absence of the different compounds that were added 30 min before stimulation.
as §1

[10] = compound needed to reach 50% RSA after 10 min, read-out: DPPH PSA IC50 10 min
[11] = read-out: DPPH PSA IC50 2 h, compound needed to reach 50% RSA after 2 h

| SMILES | ORAC [1] | ORAC ([1]; TE: Trolox Equivalents) | ABTS [2] | IC50 [3, 10] | RSA percentage [3] | IC50 [3, 11] | stability in aqueous media [4] | Aqueous Stability (%) [4] | IC50 [5] | IC50 ([5]; Homo sapiens, Fibroblast) | solubility [7] | melting point | ABTS (values in text) [2] | concentration down to which RSA ability is maintained independently of time [3] | RSA capacity fold higher compared to resveratrol [3] | effect on NADPH oxidase activity induced by Angiotensin II [8] | effect on NADPH oxidase activity induced by IL-1β [9] | other results |
| --- | --- | --- | --- | --- | --- | --- | --- | --- | --- | --- | --- | --- | --- | --- | --- | --- | --- | --- |
| O=C(Cc1ccc(O)cc1O)Nc1ccc(O)cc1 [Compound 8, 2-(2′,4′-Dihydroxyphenyl)-N-(4-hydroxyphenyl)acetamide] | 19.3 ± 0.5 µmol of trolox/µmol of pure compound | > 19 TE | 5.00 ± 0.09 µmol of trolox/µmol of pure compound | 151 µM | 67% | 64.2 µM | sufficiently stable | 98% | > 1400 µM | 1410 µM | 4100 ± 100 µg/mL (≈ 15.8 mM) | 186 to 189 °C |  |  |  |  |  | growth rate (r) recovery of stressed yeast ([6]; H2O2-stressed BY4741, doses 2, 20 and 40 μg): dose-related antioxidant effect; carrying capacity (k) recovery of stressed yeast ([6]; H2O2-stressed BY4741, each dose tested): able to recover the carrying capacity of yeast cells similarly as control antioxidants |
| O=C(Cc1ccc(O)c(O)c1)Nc1ccc(O)cc1 [Compound 7, 2-(3′,4′-Dihydroxyphenyl)-N-(4-hydroxyphenyl)acetamide] | 19.2 ± 0.4 µmol of trolox/µmol of pure compound and 19.2 ± 0. µmol of trolox/µmol of pure compound | > 19 TE | 8.12 ± 0.09 µmol of trolox/µmol of pure compound | 24.1 µM | 82% | 23.3 µM | sufficiently stable | 90% |  |  | 3100 ± 100 µg/mL (≈ 12 mM) | 192 to 194 °C | 8.1 TE | 0.063 mM | 2.8 fold | decreasing NADPH oxidase activity levels in the same order as resveratrol | significant inhibition of the IL-1β effects | cytotoxic effects ([5]; range where soluble in DMSO (up to 6 mM)): did not show any significant cytotoxic effects |
| O=C(Cc1cc(O)ccc1O)Nc1ccc(O)cc1 [Compound 3, 2-(2′,5′-Dihydroxyphenyl)-N-(4-hydroxyphenyl)acetamide] | 19.2 ± 0.2 µmol of trolox/µmol of pure compound | > 19 TE | 3.27 ± 0.1 µmol of trolox/µmol of pure compound | 8.3 µM | ~78% | 6.77 µM | sufficiently stable | 77% | 246 µM and 240 µM | 246 µM | 1300 ± 100 µg/mL (≈ 5.01 mM) | 185 to 187 °C (dec.) | 3.2 TE | 0.031 mM | 8 fold | decreasing NADPH oxidase activity levels in the same order as resveratrol | significant inhibition of the IL-1β effects | RSA ([3]; 0.031 mM, maintained from 10 min to 2 h): 78%; cell viability IC50 fold lower than compounds 17 and 8 [5]: 5–7 fold |
